{"source": "paper PMC12627933", "about": "“A First-In-Human Study of the SUMOylation Inhibitor Subasumstat in Patients with Advanced/Metastatic Solid Tumors or Relapsed/Refractory Hematologic Malignancies” (Cancer Research Communications, 2025)", "key": {"macrophages and NK cells": {"system": "macrophages and NK cells", "parameters": "method as in PMID 35226739", "settings": "IFNI-dependent innate immune activation; cited from earlier work"}, "SUMO2/3 conjugates": {"system": "SUMO2/3 conjugates", "assay": "SUMOylation pathway inhibition: decrease in SUMO2/3 conjugates in blood lymphocytes, skin and tumor", "type": "in vivo, human", "method": "(§1) Blood samples for subasumstat–SUMO adduct formation and SUMO2/3 inhibition assessments were collected before dose and at 1, 4, and 8 hours after the infusion on C1D1 and C1D8. Blood samples for additional biomarker analyses were collected before dose on C1D1 and C1D8 and at 4, 8, and 24 hours after infusion on C1D1 and C1D8. Skin biopsies (used as surrogate tissue for solid tumors) were collected at screening and on C1D8 at 2 hours (±30 minutes) after end of infusion, and tumor biopsies were collected at screening and cycle 2 day 8 (C2D8; +7 days; whenever possible). In blood samples, a custom flow cytometry assay was utilized for detecting target engagement and SUMOylated protein levels in lymphocytes (including T-, B-, and NK-cell subsets). The assay included a PE-conjugated antibody specifically recognizing the SUMO–subasumstat adduct (MIL-113, anti–cysteinyl-TAK-981, Epitomics; refs. [14], [15], [22]) and an AF488-conjugated antibody recognizing SUMO2/3 conjugates (MBL International, cat. #M114-3, RRID: AB_592769). Peripheral blood cells were lysed/fixed, permeabilized (BD Biosciences), and stained with MIL-113 and M114-3 and with antibodies against CD45, CD3, CD19, CD16/CD56, and CD14. IHC assays for SUMO–subasumstat adduct and SUMO2/3 inhibition in skin biopsies and tumors were performed using MIL-113 and M114-3 antibodies. Activation of the IFNI pathway was assessed in peripheral blood by analysis of gene expression data (PanCancer IO 360 panel by NanoString for phase I and whole-transcriptome RNA sequencing data for phase II). Type I IFN gene signature was computed using geometric mean of the following genes: CCL2, CXCL10, DDX58, IRF7, ISG15, STAT1, and STAT2. These seven IFNI-regulated genes were selected prior to the trial, based on in vitro studies of the effect of subasumstat on human blood from 10 healthy donors analyzed on the NanoString PanCancer IO 360 panel. Plasma chemokines and cytokines were measured using the MesoScale Discovery platform (pro-inflammatory and chemokine panels, BioAgilytix). For assessment of NK- and T-cell activation, cells were suspended in buffer and incubated with the following monoclonal antibodies: APC-H7 mouse anti–human CD45 (BD Biosciences, cat. #560274), APC mouse anti–human CD69 (BD Biosciences, cat. #555533), BV421 mouse anti–human CD56 (BD Biosciences, cat. #562751), mouse anti–human CD16 PerCP-Cy5.5 (BD Biosciences, cat. #338440), BV510 mouse anti–human CD4 (BD Biosciences, cat. #563094), BV605 mouse anti–human CD8 (BD Biosciences, cat. #564116), and Alexa Fluor 700 anti–mouse CD3 antibody (BioLegend, cat. #100215), prior to assessment by flow cytometry using the BD Scientific FACSCanto flow cytometer (RRID: SCR_018055). Tumor PD-L1 expression level was assessed in paired tumor biopsies using the 22C3 PD-L1 IHC assay; combined positive score (CPS) was calculated for baseline and on-treatment tumor samples. The immune landscape in the tumor microenvironment (TME) was assessed using an integrated RNAscope and 27-marker MultiOmyx immunofluorescence panel."}, "[1]": {"assay": "Pharmacokinetics after 1-hour intravenous infusion (non-compartmental)", "type": "in vivo, human", "settings": "for half-life: across all dose levels, read-out: Terminal disposition phase half-life", "method": "Subasumstat PK were evaluated after the first dose on C1D1 and cycle 1 day 8 (C1D8). The parameters included maximum observed plasma concentration (Cmax), time to first occurrence of Cmax, area under the plasma concentration–time curve from time 0 to the last measurable concentration (AUC0–t) or from time 0 extrapolated to time infinity (AUC0–∞), terminal disposition phase half-life, total clearance, and volume of distribution at steady state. PK parameters were estimated from concentration–time profiles for the PK analysis set, using non-compartmental methods, with Phoenix WinNonlin (RRID: SCR_024504)."}, "[2]": {"system": "tumor microenvironment (TME)", "assay": "Tumor microenvironment in paired tumor biopsies (multiplex immunofluorescence, PD-L1 22C3 IHC CPS)", "type": "in vivo, human", "method": "as §1"}, "[3]": {"settings": "cervical cancer and melanoma biopsies"}}, "note": "Where two headings read alike, the source gives them in different places.", "data": [{"smiles": "Cc1sc(C(=O)c2cncnc2N[C@@H]2C[C@H](COS(N)(=O)=O)[C@@H](O)C2)cc1[C@@H]1NCCc2ccc(Cl)cc21", "note": "[subasumstat]", "values": [{"measurement": "Killing of tumor cell targets", "setting": "macrophages and NK cells", "result": "enhanced killing of tumor cell targets"}, {"measurement": "Duration of SUMO2/3 inhibition", "setting": "SUMO2/3 conjugates; peripheral blood lymphocytes", "result": "at least 8 hours"}, {"measurement": "Time to SUMO2/3 inhibition after end of infusion", "setting": "SUMO2/3 conjugates; peripheral blood lymphocytes", "result": "≤ 1", "unit": "h"}, {"measurement": "Dose from which SUMO2/3 inhibition was observed", "setting": "SUMO2/3 conjugates; peripheral blood lymphocytes, dose-dependent", "result": "≥ 40", "unit": "mg"}, {"measurement": "SUMO2/3 inhibition in tumor samples", "setting": "SUMO2/3 conjugates; post-dose tumor samples, except two MSS colorectal cancer and one NSCLC patient", "result": "observed in most post-dose samples"}, {"measurement": "Dose from which reduced SUMO2/3 levels were observed in skin", "setting": "SUMO2/3 conjugates; skin biopsies on C1D8", "result": "≥ 60", "unit": "mg"}, {"measurement": "Time of maximum plasma and blood concentrations", "setting": "[1]; after dose (end of infusion), intravenous, C1D1 and C1D8, phase I", "result": "approximately 1 hour"}, {"measurement": "Increase of Cmax, AUC0–t and AUC0–∞ with dose", "setting": "[1]; dose range 3 to 120 mg, C1D1 and C1D8", "result": "approximately dose-proportional"}, {"measurement": "half-life", "setting": "[1]; human, intravenous, plasma", "result": "3.35 to 9.31", "unit": "h"}, {"measurement": "clearance", "setting": "[1]; human, intravenous, stated as lower in blood compared with plasma, matrix of the range not stated explicitly", "result": "38.2 to 76", "unit": "mL/min"}, {"measurement": "Vd", "setting": "[1]; human, intravenous, stated as lower in blood compared with plasma, matrix of the range not stated explicitly, read-out: Volume of distribution at steady state", "result": "13.7 to 38.8", "unit": "L"}, {"measurement": "half-life", "setting": "[1]; human, whole blood, intravenous, blood", "result": "2.87 to 9.19", "unit": "h"}, {"measurement": "Accumulation in plasma after multiple administrations", "setting": "[1]; phase II, 90 mg twice weekly, C1D4, C1D8, C2D1, C2D8 vs C1D1", "result": "no apparent accumulation"}, {"measurement": "T-cell infiltration in tumor", "setting": "[2]; CPI-naïve cervical cancer and CPI-exposed melanoma and NSCLC samples", "result": "significant CD8^+ and CD4^+ T-cell infiltration"}, {"measurement": "T-cell density in tumor", "setting": "[2]; biopsies from three patients with MSS colorectal cancer", "result": "did not exhibit an increase in T-cell density"}, {"measurement": "Activated CD11C+HLA-DR+ myeloid dendritic cells", "setting": "[2]; [3]", "result": "increase in density"}, {"measurement": "HLA class I expression on tumor cells", "setting": "[2]; [3]", "result": "marked increase"}, {"measurement": "T-cell activation (CD69 on CD4+ and CD8+ T cells) in tumor", "setting": "[2]; [3]", "result": "significant increase in T-cell activation"}, {"measurement": "PD-L1 CPS", "setting": "[2]; paired tumor samples, C2D8", "result": "increased in most paired tumor samples"}, {"measurement": "Regulatory T cells in tumor", "setting": "[2]; same biopsies", "result": "no significant changes"}]}]}
